Data on twelve compounds can be found in PubChem BioAssay (NCI).

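Method: 48-hour compound exposure of cells in 96-well plates, five concentrations, linear interpolation of endpoints. Here, GI50 denotes the concentration required for 50% inhibition of growth. Definition used: TGI = concentration required for complete inhibition of growth.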

Test systems include COLO 205 colon; EKVX NSCLC; IGROV1 ovarian; LOX IMVI melanoma; OVCAR-5 ovarian; OVCAR-8 ovarian; SK-MEL-28 melanoma; SK-MEL-5 melanoma; SW-620 colon; U251 CNS.
What all share (test): DTP human tumour cell line panel, 48 h

What is called TGI is the concentration at which net growth stops. Read a high TGI as less potent growth arrest. Consider `CNC=O`, for which the TGI in the assay on COLO 205 colon, in the assay on EKVX NSCLC, in the assay on IGROV1 ovarian, in the assay on LOX IMVI melanoma, in the assay with OVCAR-5 ovarian and in the assay on OVCAR-8 ovarian was greater than 10000 µM in each case. The TGI in the assay on SK-MEL-28 melanoma, in the assay on SK-MEL-5 melanoma, in the assay on SW-620 colon and in the assay with U251 CNS was greater than 10000 µM throughout.

Consider `Nc1ccccc1Sc1ccc(Cl)cc1`, for which the TGI is 44.1 µM in the assay with COLO 205 colon; 76.9 µM in the assay on EKVX NSCLC; greater than 100 µM in the assay on IGROV1 ovarian; greater than 100 µM in the assay with LOX IMVI melanoma; greater than 100 µM in the assay on OVCAR-5 ovarian; greater than 100 µM with OVCAR-8 ovarian. Besides, the TGI in the assay with SK-MEL-28 melanoma is 64 µM; in the assay with SK-MEL-5 melanoma it was 32 µM; in the assay on SW-620 colon it was greater than 100 µM; in the assay with U251 CNS, 36.2 µM.

Turning to `COc1cc(/C=C/C(=O)O)ccc1O`, the TGI with COLO 205 colon, in the assay with EKVX NSCLC, in the assay with IGROV1 ovarian, with LOX IMVI melanoma, in the assay on OVCAR-5 ovarian and in the assay on OVCAR-8 ovarian was greater than 100 µM each time. Besides, the TGI in the assay on SK-MEL-28 melanoma, with SK-MEL-5 melanoma, with SW-620 colon and with U251 CNS was greater than 100 µM each time.

The term GI50 denotes the concentration giving 50% growth inhibition. For `COc1cc2cnc3c(c2cc1OC)Cc1cc2c(cc1-3)OCO2`, the GI50 in the assay on COLO 205 colon was less than 0.01 µM; in the assay on EKVX NSCLC it was 0.0279 µM; with IGROV1 ovarian it was 0.014 µM; in the assay on LOX IMVI melanoma it was 0.576 µM; in the assay on OVCAR-5 ovarian, 35.5 µM; in the assay with OVCAR-8 ovarian it was 0.0527 µM. Also, the GI50 was 1.86 µM in the assay with SK-MEL-28 melanoma, less than 0.01 µM in the assay with SK-MEL-5 melanoma, less than 0.01 µM in the assay with SW-620 colon and less than 0.01 µM in the assay with U251 CNS. For the same compound, the TGI in the assay with COLO 205 colon is greater than 100 µM; in the assay on EKVX NSCLC, 55.9 µM; in the assay on IGROV1 ovarian, greater than 62.9 µM; in the assay on LOX IMVI melanoma, greater than 100 µM; in the assay on OVCAR-5 ovarian, 77.9 µM; in the assay on OVCAR-8 ovarian, greater than 100 µM. The concentration for total growth inhibition (TGI) in the assay with SK-MEL-28 melanoma was greater than 100 µM; with SK-MEL-5 melanoma it was 5.39 µM; with SW-620 colon, greater than 100 µM; in the assay on U251 CNS it was 0.517 µM.

Take `C/C(=C1/N=C(c2cc([N+](=O)[O-])ccc2Cl)N(C2=CC=C(Cl)CC2)C1=O)c1cc2ccccc2oc1=O`: the TGI with COLO 205 colon, in the assay with EKVX NSCLC, with IGROV1 ovarian, with LOX IMVI melanoma, with OVCAR-5 ovarian and in the assay with OVCAR-8 ovarian was greater than 100 µM in each case. The TGI with SK-MEL-28 melanoma, with SK-MEL-5 melanoma, in the assay with SW-620 colon and in the assay on U251 CNS was greater than 100 µM each time.

Take `CCCCN(CCCC)c1ccc(N=Nc2ccc(S(=O)(=O)O)cc2)cc1`: the TGI in the assay on COLO 205 colon was 37.8 µM; in the assay on EKVX NSCLC it was greater than 100 µM; in the assay with IGROV1 ovarian it was 43.1 µM; with LOX IMVI melanoma, 42.8 µM; in the assay on OVCAR-5 ovarian it was greater than 100 µM; in the assay on OVCAR-8 ovarian it was 44.9 µM. Also, the TGI is greater than 100 µM in the assay with SK-MEL-28 melanoma, 43.4 µM in the assay on SK-MEL-5 melanoma, greater than 100 µM with SW-620 colon and greater than 100 µM in the assay with U251 CNS.

As for `O=S(=O)(O)c1ccc(N=Nc2ccc(N=Nc3ccc(/C=C/c4ccc(N=[N+]([O-])c5ccc(/C=C/c6ccc(N=Nc7ccc(N=Nc8ccc(S(=O)(=O)O)cc8)c8ccccc78)cc6S(=O)(=O)O)c(S(=O)(=O)O)c5)cc4S(=O)(=O)O)c(S(=O)(=O)O)c3)c3ccccc23)cc1`, the TGI in the assay on COLO 205 colon, in the assay with EKVX NSCLC, in the assay with IGROV1 ovarian, in the assay on LOX IMVI melanoma, in the assay with OVCAR-5 ovarian and in the assay on OVCAR-8 ovarian was greater than 100 µM in each case. Moreover, the TGI in the assay with SK-MEL-28 melanoma, in the assay on SK-MEL-5 melanoma, in the assay on SW-620 colon and in the assay with U251 CNS was greater than 100 µM in each case.

In the case of `CC1=CC[C@H](C)C(C)(C)C1/C=C/C(C)=C/CC[C@@]1(CO)[C@H](CCCO)/C(=C(/C)C=O)CC[C@]1(C)O` (stereo not given in full), the TGI amounted to 3.51 µM with COLO 205 colon; 4.48 µM in the assay on EKVX NSCLC; 24.7 µM with IGROV1 ovarian; 15.7 µM with LOX IMVI melanoma; 38.2 µM in the assay with OVCAR-5 ovarian; 32.9 µM in the assay on OVCAR-8 ovarian. Besides, the TGI in the assay on SK-MEL-28 melanoma was 23.7 µM; with SK-MEL-5 melanoma, 4.26 µM; in the assay on SW-620 colon, 12.5 µM; in the assay with U251 CNS, 12.9 µM.

In the case of `CC(=O)/C=C/c1c[nH]c(=O)[nH]c1=O`, the TGI in the assay with COLO 205 colon was 395 µM; in the assay with EKVX NSCLC it was 570 µM; in the assay on IGROV1 ovarian it was 861 µM; with LOX IMVI melanoma it was 354 µM; in the assay with OVCAR-5 ovarian, 618 µM; in the assay with OVCAR-8 ovarian, 873 µM. The TGI came to 504 µM with SK-MEL-28 melanoma, 574 µM in the assay on SK-MEL-5 melanoma, 696 µM in the assay with SW-620 colon and 503 µM with U251 CNS.

`C=CCN1C(=O)/C(=C/c2cccs2)N=C1SC1OC(COC(=O)c2ccccc2)C(OC(=O)c2ccccc2)C1OC(=O)c1ccccc1` (stereo not given): the TGI in the assay with COLO 205 colon, in the assay on EKVX NSCLC, in the assay on IGROV1 ovarian, in the assay on LOX IMVI melanoma, with OVCAR-5 ovarian and with OVCAR-8 ovarian was greater than 100 µM throughout. Besides, the TGI in the assay on SK-MEL-28 melanoma, in the assay with SK-MEL-5 melanoma, in the assay with SW-620 colon and with U251 CNS was greater than 100 µM each time.

Regarding `C=C1C(C[C@@H]2O[C@H]3C[C@H]4O[C@@]5(C[C@@H]6O[C@]7(C[C@H](C)[C@@H]8O[C@@H]9CC(C(O)CO)O[C@@H]9C[C@@H]8O7)C[C@H](C)[C@@H]6O5)C[C@H]4O[C@H]3[C@H](C)[C@H]2O)O[C@@H](CC[C@@H]2O[C@@H](CC[C@@]34CC5O[C@H]6C(O[C@H]7CC[C@H](CC(=O)OC)O[C@@H]7[C@@H]6O3)[C@H]5O4)CC2=C)C[C@H]1C` (stereo not given in full), the TGI in the assay with COLO 205 colon was 0.0035 µM; in the assay on EKVX NSCLC, greater than 1 µM; in the assay on IGROV1 ovarian, 0.579 µM; in the assay with LOX IMVI melanoma it was greater than 0.292 µM; with OVCAR-5 ovarian it was greater than 1 µM; in the assay with OVCAR-8 ovarian it was 0.0125 µM. Also, the TGI was greater than 1 µM with SK-MEL-28 melanoma, 0.0559 µM with SK-MEL-5 melanoma, greater than 1 µM in the assay with SW-620 colon and greater than 1 µM in the assay with U251 CNS.

As to `C[C@@H]1CCN(C(=O)CC#N)C[C@@H]1N(C)c1ncnc2[nH]ccc12`, the GI50 in the assay on COLO 205 colon is greater than 100 µM; in the assay on EKVX NSCLC, 17.6 µM; with IGROV1 ovarian, 65.8 µM; with LOX IMVI melanoma, greater than 100 µM; in the assay on OVCAR-5 ovarian, 27.4 µM; in the assay on OVCAR-8 ovarian, greater than 100 µM. Also, the GI50 in the assay on SK-MEL-28 melanoma was 62.6 µM; in the assay on SK-MEL-5 melanoma, greater than 100 µM; in the assay with SW-620 colon, greater than 100 µM; with U251 CNS it was greater than 100 µM. In addition, the TGI in the assay with COLO 205 colon, with EKVX NSCLC, in the assay with IGROV1 ovarian, in the assay with LOX IMVI melanoma, in the assay on OVCAR-5 ovarian and in the assay on OVCAR-8 ovarian was greater than 100 µM each time. The TGI in the assay on SK-MEL-28 melanoma, in the assay on SK-MEL-5 melanoma, with SW-620 colon and in the assay with U251 CNS was greater than 100 µM in each case.
